Tested on: MCF-7 c-Jun over-expressing cells
Test: Sensitivity of c-Jun over-expressing cells to apoptotic inducing agents, DNA fragmentation
Assay type: cell-based, human
Conditions: for DNA fragmentation in cells cultured with the agent: FIG. 4A; for Sensitivity of c-Jun over-expressing cells to the apoptotic inducing agent: compared to vector control, FIG. 3
Source text: Human MCF-7 cells were stably transfected with wild type transcription factor c-jun and expressed high levels of c-Jun protein. The c-Jun over-expressing MCF-7 cells were obtained from Drs. Michael Birrer (National Institutes of Health, National Cancer Institute, Rockville, Md.) and Paul Brown (Baylor College of Medicine, Houston, Texas). A description of the c-Jun over-expressing MCF-7 cells can be found in Yang et al. (1997) and Smith et al. (1999).
Bax levels were not altered (FIG. 2A).

| Compound | DNA fragmentation in cells cultured with the agent | Sensitivity of c-Jun over-expressing cells to the apoptotic inducing agent |
| --- | --- | --- |
| ceramide | high degree of DNA fragmentation | highly sensitive |
| Cc1c(C)c2c(c(C)c1OC(=O)CCC(=O)O)CC[C@@](C)(CCC[C@H](C)CCC[C@H](C)CCCC(C)C)O2 [vitamin E succinate (VES), vitamin E succinate] | high degree of DNA fragmentation | highly sensitive |
| CC1=C(/C=C/C(C)=C/C=C/C(C)=C/C(=O)Nc2ccc(O)cc2)C(C)(C)CCC1 [N-(4-hydroxyphenyl) retinamide (4-HPR), N-(4-hydroxyphenyl) retinamide] | high degree of DNA fragmentation | highly sensitive |
